# Source: patent US20100098737A1, “METHODS AND COMPOSITIONS FOR DELIVERY OF GLYCOPEPTIDE ANTIBIOTICS TO MEDICAL DEVICE SURFACES” (priority 2008, published 2010)
# Where two headings read alike, the source gives them in different places. *1 amine or outer side, *2 acyl side, *3 side chain or, on linkers, in order; H or OH if unused. Bridges are numbered along the chain shown (N, C = ends). Where no end group is shown, it is not given here. [ ]: non-standard residue; d: D form. The star is where a group is joined. (miniPEG)2 = linker of two miniPEG units, each HN-CH2CH2-O-CH2CH2-O-CH2-C(=O), O=C(COCCOCCN[*:1])NCCOCCOCC(=O)[*:2]; Myristoyl = CCCCCCCCCCCCCC(=O)*; Aun = NCCCCCCCCCCC(=O)O; Ahx = NCCCCCC(=O)O
# Legend:
# [1] = tested on: binding between vancomycin and a peptide comprising SEQ ID NO:1; test: inhibition by Lys-D-Ala-D-Ala of binding between vancomycin and peptide SEQ ID NO:1
# Protocol: As an example, illustrated is the inhibition by Lys-D-Ala-D-Ala of specific binding between vancomycin and a peptide comprising the amino acid sequence of SEQ ID NO:1. To the wells of a 96 well plate coated with streptavidin was added 100 μl of a 0.2 μM solution of biotinylated peptide in buffer-T. After incubation, the wells were blocked by adding 200 μl of a 0.5 mM solution of biotin in buffer-T. The plates were then washed three times with buffer-T. Serial dilutions of Lys-D-Ala-D-Ala were prepared, and added individually to the wells such that Lys-D-Ala-D-Ala ranged in a final concentration of from about 1 μM to about 200 μM (in a volume of 35 μl). Also added to each well was 35 μl of biotinylated vancomycin (20 nM final concentration), and the plate was incubated at 30 minutes for room temperature. The wells were then washed three times with buffer-T, followed by the addition of 100 μl of streptavidin-alkaline phosphatase conjugate (1 mg/ml diluted 1:500 in buffer-T). Following a 30 minute incubation, the wells were washed five times with buffer-T. Added to each well was 100 μl of pNPP, followed by colorimetric detection after 12 minutes at an absorbance of 405 nm.
# [2] = binding assay for gentamycin, similar format as for vancomycin; conditions: aminoglycoside antibiotic
# [3] = binding assay: biotinylated synthetic peptide on streptavidin plate, titrated with biotinylated glycopeptide antibiotic
# Protocol: A typical binding assay for glycopeptide antibiotic was performed according to the following procedure. Briefly, synthetic peptides comprising an amino acid sequence to be characterized for binding were biotinylated to facilitate immobilization on streptavidin-coated 96-well plates. The microtiter plates were coated with streptavidin by adding 50 μl of a 10 μg/ml streptavidin solution in 0.1M NaHCO3, and incubating the plates for at least 3 hours. The plate wells were blocked by adding 150 μl of a 1% BSA solution in 0.1 NaHCO3 with incubation for at least 2 hours, and the plates were stored at 4° C. until needed. Before use, the streptavidin plates were washed extensively in buffer-T. Added per well was peptide (100 μl 0.1 μM peptide in buffer-T), and then incubated for 30 minutes at room temperature with shaking. 200 μl of 0.5 mM biotin in buffer-T was added to block the remaining streptavidin sites, and plates were incubated for 15 minutes at room temperature. Plates were then washed with buffer-T to remove the excess biotin and peptide. Serial dilutions of biotinylated glycopeptide antibiotic in buffer-T were added (100 μl) to each well, representing a range of concentrations between 100 pM and 100 μM. Plates were incubated for 30 minutes at room temperature with shaking prior to washing several times with buffer-T. Glycopeptide antibiotic was then detected by adding 100 μl of a diluted streptavidin-alkaline phosphatase conjugate to each well and incubated at room temperature for 30 minutes. Excess conjugate was removed by repeated washes with buffer-T, and the amount of alkaline phosphatase remaining in the well was detected using a pNPP (para-nitrophenylphosphate) colorimetric enzymatic assay. The relative amount of glycopeptide antibiotic captured by the peptides was determined by measuring the absorbance at 405 nm of the colored product of the alkaline phosphatase reaction. The EC50 was determined for each peptide relative to the binding affinity for the glycopeptide antibiotic used in the assay, as shown in Table 1 (with vancomycin as a representative glycopeptide antibiotic).
# A typical binding assay for glycopeptide antibiotic was performed according to the following procedure. The concentrations of the alkaline-phosphatase linked variant peptides were normalized to equal levels based on the alkaline-phosphatase activity as determined in a kinetic assay with the alkaline-phosphatase specific chromogenic substrate p-nitrophenyl phosphate (p-NPP). A streptavidin coated microtiter plate was coated with biotinylated vancomycin. Serial dilutions of normalized alkaline-phosphatase linked peptides were allowed to bind to the immobilized vancomycin and detected by addition of the alkaline-phosphatase specific chromogenic substrate p-NPP. Relative affinity for peptide binding to the immobilized vancomycin was determined by measuring the absorbance at 405 nm of the colored product of the alkaline phosphatase reaction. […] EC50 values for the synthetic peptides binding to vancomycin were determined as described in Example 1 and are shown in Table 3. Preferred are peptides that bind to glycopeptide antibiotic with binding affinity of EC50 of less than or equal to about 1 μM, and more preferably, in the nanomolar range (e.g., <0.1 μM).
# S. aureus MZ100 = test: in vitro infection model on titanium pins, colony counts; assay type: cell-based; conditions: composition 5 μM + vancomycin 100 μM, two hours incubation
# Protocol: Acetone-sterilized titanium pins (1 mm diameter, 12 mm long) were first washed in PBS. These pins were then incubated in a solution (PBS) containing the respective composition (5 μM)+vancomycin (100 μM) for 15 minutes at room temperature, with intermittent inversion for coating. Each pin was then washed extensively in PBS and placed in 30 μL of S. aureus MZ100 cultured at 10^6 colony forming units (cfu) per mL, according to methods above. The coated pins were then inoculated in 30 mm lengths of 1.5 mm diameter silicone tubing, with closed ends. After incubation for two hours with shaking, the pin was placed in a new tube containing 1 mL PBS. After inverting several times, PBS was aspirated, and replaced with a fresh 1 mL of PBS. The pins were then sonicated at 20 kHz for four cycles of 15 seconds each. Supernatants (100 μL) and dilutions were plated on trypticase soy agar (TSA) plates, incubated for 24 hours at 37° C., and colonies were counted. An assay control included the same steps of the infection model, except that the pin is uncoated pin (i.e., without composition according to the presently disclosed subject matter bound thereto) (“Control”). As representative examples, compositions comprising the amino acid sequences of SEQ ID NOs: 125 and 126 were tested for antimicrobial activity using the in vitro infection model (see, Table 7, “A” & “B”, respectively).
# vancomycin [4] = test: titanium beads with 10 µM peptide composition and 200 µM vancomycin, washed, vancomycin eluted with HCl and measured by HPLC
# vancomycin [5] = test: retention of BODIPY-FL vancomycin on titanium beads with the peptide composition, followed from 45 minutes to 100 hours
molecule,measurement,setting,value
Lys-D-Ala-D-Ala (Lys-[dA]-[dA]),inhibition of binding between vancomycin and peptide,[1]; Lys-D-Ala-D-Ala between 100 μM to 200 μM,~100%
same,IC50,"[1]; biotinylated vancomycin 20 nM, read-out: concentration needed to inhibit about 50% of the binding between vancomycin and peptide",~10000 nM
CLIDMYGVCHNFDGAYDS [compound 1],binding affinity for gentamycin,[2],lacked significant binding affinity
same,EC50,"[3]; synthetic peptides binding to vancomycin, read-out: EC50, binding to glycopeptide antibiotic",< 0.1 µM
same,EC50,"[3]; synthetic peptides, biotinylated vancomycin, read-out: EC50 (μM) for vancomycin binding",0.1 µM
Myr-Ahx-SSCLIDIYGVCHNFDAY-(miniPEG)2-HKKNNPKKKNKTRGSSK ({Myristoyl-Ahx}-SSCLIDIYGVCHNFDAY[miniPEG][miniPEG]HKKNNPKKKNKTRGSSK; disulfide 3-11 (inferred)) [SEQ ID NO: 125],# of bacterial colonies (CFU),S. aureus MZ100,100 CFU
AUD-AUD-AUD-SSCLIDIYGVCHNFDAY-(miniPEG)2-HKKNNPKKKNKTRGSSK ([Aun][Aun][Aun]SSCLIDIYGVCHNFDAY[miniPEG][miniPEG]HKKNNPKKKNKTRGSSK; disulfide 6-14 (inferred)) [SEQ ID NO: 126],# of bacterial colonies (CFU),S. aureus MZ100,<10 CFU
H-SSSCLIDMYGVCHNFDGAYDSSRG[(miniPEG)2]SSHRTNHKKNNPKKKNKTRGSSGK-NH2 (disulfide 4-12 (inferred)) [peptide composition comprising SEQ ID NO: 120],Picomoles vancomycin/cm^2 (picomoles/cm^2),vancomycin [4],61
same,percent of BODIPY-FL vancomycin remaining on the metal surface after 3 hours,vancomycin [5],50%
